“And” between values parts separate entries of the source, which are not always exact repeats. Equal entries are not always repeated. Where two headings read alike, the source gives them in different places. Marks after values point to notes of the source that are not given here.
Experiments:
CYP3A4 = settings: cited from earlier work
[1] = type: in vivo, human; settings: for M:P AUCinf ratio, relative bioavailability point estimate / M:P AUCt ratio, relative bioavailability point estimate: Day 11 vs. day 1; for Cmax, geometric mean (mean, %CV): N = 20; for change in terminal elimination half-life / change in Tmax: day 11 compared to day 1, all subjects
CYP2C19 [2] = assay: Clinical classification of elagolix as CYP2C19 inhibitor from omeprazole DDI; type: in vivo, human; settings: elagolix 300 mg b.i.d., FDA criteria for clinical CYP enzyme inhibitors
P‐gp [3] = settings: in vitro; cited from earlier work
CYP2C19 [4] = settings: in vitro; cited from earlier work
CYP3A = settings: in vitro; cited from earlier work
[5] = Elagolix plasma concentrations on day 11 of this study; type: in vivo; settings: female, human, oral, 300 mg
[6] = no reference given; cited from earlier work
[7] = rabbits, coadministration with verapamil; cited from earlier work
[8] = cited from earlier work
[9] = low aqueous solubility and high permeability; cited from earlier work
P‐gp [10] = settings: following elagolix 200 mg b.i.d. regimen; cited from earlier work
[11] = Day 1, omeprazole 40 mg (reference)
[12] = Day 11, elagolix 300 mg b.i.d. + omeprazole 40 mg (test)
[13] = Study day 1, omeprazole 40 mg alone
[14] = Study day 11, omeprazole 40 mg + elagolix 300 mg b.i.d.
[15] = day 11 (elagolix 300 mg b.i.d.) vs day 1, all subjects

Compound: Cc1ncc2n1-c1ccc(Cl)cc1C(c1ccccc1F)=NC2 [midazolam]
- reduction in AUC (CYP3A4; with elagolix 150 mg q.d.): 35%
- reduction in AUC (CYP3A4; with elagolix 300 mg b.i.d.): 54%

Compound: COc1ccc2nc([S+]([O-])Cc3ncc(CO)c(OC)c3C)[nH]c2c1 (stereo not shown) [5‐hydroxyomeprazole]
- M:P AUCinf ratio, central value [1, 11]: 0.458
- M:P AUCt ratio, central value [1, 11]: 0.471
- M:P AUCinf ratio, central value [1, 12]: 0.198
- M:P AUCt ratio, central value [1, 12]: 0.194
- M:P AUCinf ratio, relative bioavailability point estimate [1]: 0.432
- M:P AUCt ratio, relative bioavailability point estimate [1]: 0.412
- AUCinf, geometric mean (mean, %CV) [1, 13]: 883 (932, 33) ng•h/ml
- AUCt, geometric mean (mean, %CV) [1, 13]: 857 (911, 35) ng•h/ml
- RAUCinf, metabolite-to-omeprazole AUCinf ratio, median (minimum–maximum) [1, 13]: 0.61 (0.048–2.3) ^c
- RAUCt, metabolite-to-omeprazole AUCt ratio, median (minimum–maximum) [1, 13]: 0.65 (0.044–2.1)
- Tmax, median (minimum–maximum) [1, 13]: 2.0 (2.0–10) h
- t1/2, harmonic mean (pseudo-standard deviation) [1, 13]: 1.88 (0.794) h
- Cmax, geometric mean (mean, %CV) [1, 13]: 195 (238, 61) ng/ml
- AUCinf, geometric mean (mean, %CV) [1, 14]: 664 (679, 21) ng•h/ml
- AUCt, geometric mean (mean, %CV) [1, 14]: 643 (659, 22) ng•h/ml
- RAUCinf, metabolite-to-omeprazole AUCinf ratio, median (minimum–maximum) [1, 14]: 0.20 (0.071–0.90)
- RAUCt, metabolite-to-omeprazole AUCt ratio, median (minimum–maximum) [1, 14]: 0.20 (0.071–0.84)
- Tmax, median (minimum–maximum) [1, 14]: 3.0 (1.0–8.0) h
- t1/2, harmonic mean (pseudo-standard deviation) [1, 14]: 1.97 (0.901) h
- Cmax, geometric mean (mean, %CV) [1, 14]: 134 (142, 34) ng/ml
- change in terminal elimination half-life [1]: unchanged
- decrease in AUCinf ([1]; day 11 vs day 1, EM subjects): 23%
- decrease in AUCinf ([1]; day 11 vs day 1, IM subjects): 30%
- decrease in AUCinf (exposure) ([1]; day 11 vs day 1, PM subjects): 20%
- decrease in AUCinf (exposure) ([1]; day 11 vs day 1, all subjects): 25%
- decrease in Cmax ([1]; day 11 vs day 1, all subjects): approximately 30%
- decrease in metabolite-to-parent (M:P) AUC ratio ([1]; day 11 vs day 1, all subjects): ~ 60%
- increase in Tmax ([1]; day 11 vs day 1, all subjects): 1 h

Compound: COc1ccc2nc(S(=O)(=O)Cc3ncc(C)c(OC)c3C)[nH]c2c1 [omeprazole sulfone]
- M:P AUCinf ratio, central value [1, 11]: 0.825
- M:P AUCt ratio, central value [1, 11]: 0.679
- M:P AUCinf ratio, central value [1, 12]: 1.028
- M:P AUCt ratio, central value [1, 12]: 1.017
- M:P AUCinf ratio, relative bioavailability point estimate [1]: 1.246
- M:P AUCt ratio, relative bioavailability point estimate [1]: 1.497
- change in Cmax after elagolix dosing ([1]; PM subjects): unchanged
- RAUCinf, metabolite-to-omeprazole AUCinf ratio, median (minimum–maximum) [1, 13]: 0.85 (0.52–1.1) ^e
- RAUCt, metabolite-to-omeprazole AUCt ratio, median (minimum–maximum) [1, 13]: 0.76 (0.13–1.1)
- RAUCinf, metabolite-to-omeprazole AUCinf ratio, median (minimum–maximum) [1, 14]: 0.99 (0.71–1.5)
- RAUCt, metabolite-to-omeprazole AUCt ratio, median (minimum–maximum) [1, 14]: 0.97 (0.67–1.5)
- increase in AUCinf (exposure) [1, 15]: 2.5 fold
- increase in Cmax [1, 15]: 2.7 fold
- change in Tmax [1]: relatively unchanged
- change in terminal elimination half-life [1]: relatively unchanged
- increase in exposures ([1]; day 11 vs day 1, EM and IM subjects): ~ 3 fold
- increase in AUCinf ([1]; day 11 vs day 1, EM subjects): 2.7 fold
- increase in AUCinf ([1]; day 11 vs day 1, IM subjects): 3 fold
- increase in metabolite-to-parent (M:P) AUC ratio ([1]; day 11 vs day 1, all subjects): 25%
- AUCinf on day 11 lower compared to day 1 ([1]; one PM subject with AUCinf on both days): 40%

Compound: COc1cccc(-c2c(C)n(Cc3c(F)cccc3C(F)(F)F)c(=O)n(C[C@H](NCCCC(=O)O)c3ccccc3)c2=O)c1F [elagolix]
- clinical CYP2C19 inhibitor classification (CYP2C19 [2]): weak inhibitor
- IC50 (P‐gp [3]): 54 µM
- Ki (CYP2C19 [4]): 34 µM
- kinact (CYP2C19 [4]): 0.029 min⁻¹
- CYP3A inducer classification (CYP3A4; from midazolam DDI): weak to moderate inducer
- maximum induction (CYP3A): 20 fold
- Cmax [5]: 1410 ng/mL

Compound: COc1ccc2[nH]c([S+]([O-])Cc3ncc(C)c(OC)c3C)nc2c1 (stereo not shown) [omeprazole, reference compound]
- increase in AUCinf (exposure) [1, 15]: 1.8 fold
- increase in Cmax [1, 15]: 1.9 fold
- change in Tmax [1]: unchanged
- change in terminal elimination half-life [1]: unchanged
- increase in AUCinf ([1]; day 11 vs day 1, EM subjects): 2 fold
- increase in AUCinf ([1]; day 11 vs day 1, IM subjects): 2.6 fold
- decrease in AUCinf (exposure) ([1]; day 11 vs day 1, PM subjects): 40%
- increase in Cmax ([1]; day 11 vs day 1, PM subjects): 23%
- Tmax ([1]; human, plasma, oral, 40 mg, Tmax, individual subjects, three PM subjects, day 1): 8 h
- Tmax, individual subjects ([1]; three PM subjects, day 1): 10 h and 2 h
- Tmax, individual subjects ([1]; three PM subjects, day 11): 2 h (2×) and 1 h
- estimated fraction absorbed and escaping intestinal first pass (fa*fg) [6]: approximately 0.80
- increase in AUC [7]: more than 2 fold
- increase in Cmax [7]: more than 2 fold
- model-estimated absorption rate constant, higher vs homozygous wild-type ([8]; subjects heterozygous for ABCB1 mutant alleles): 2 fold
- model-estimated absorption rate constant, higher vs homozygous wild-type ([8]; subjects homozygous for ABCB1 mutant alleles): 7 fold
- Biopharmaceutics Classification System (BCS) class [9]: Class 2

Compound: C[C@H]1O[C@@H](O[C@H]2[C@@H](O)C[C@H](O[C@H]3[C@@H](O)C[C@H](O[C@H]4CC[C@@]5(C)[C@H](CC[C@@H]6[C@@H]5C[C@@H](O)[C@]5(C)[C@@H](C7=CC(=O)OC7)CC[C@]65O)C4)O[C@@H]3C)O[C@@H]2C)C[C@H](O)[C@@H]1O [digoxin]
- increase in AUC (P‐gp [10]): 26%
- increase in Cmax (P‐gp [10]): 71%

— publication PMC9099122 (Clinical and Translational Science, 2022)
